Where two headings read alike, the source gives them in different places.
How the values were obtained:
[1] = system: Phospho-ERK levels in KYSE-520 cells; experiment: pERK AlphaScreen Protocol; type: cell-based; conditions: KYSE-520 cells, 2 hr compound incubation, phospho-ERK1/2 AlphaScreen SureFire, read-out: PERK Avg IC50
Procedure: KYSE-520 cells (10 k cells/well) were grown in 384-well plate in 20 uL of medium (RPMI-1640, without phenol red, containing 10% FBS) at 37° C. with 5% CO2 overnight. DMSO (control) or increasing concentrations of compounds were diluted in medium, added to the 384-well plate (5 uL/well, final DMSO concentration of 1%), and cells were then incubated with compounds for 2 hr. Phospho-ERK levels were measured using phospho-ERK1/2 AlphaScreen SureFire (PerkinElmer, TGRESB10K) following manufacturer's recommendations. Dose-response curves were analyzed using IC50 regression curve fitting (GeneData Screener). Curves were normalized to a high control without inhibitor (DMSO only), and low control (1 μM selumetinib).

[2] = target: PTPN11-E76K mutant enzyme (Homo sapiens (Human), UniProt Q06124, E76K); experiment: PTPN11 Enzymatic Assay (DiFMUP phosphatase activity); type: biochemical; conditions: full length PTPN11-E76K mutant enzyme 250 pM, DiFMUP 50 μM, 30 min preincubation; read-out: PTPN11-E76K Avg IC50
Sequence of PTPN11-E76K mutant enzyme (Q06124 whole entry E76K): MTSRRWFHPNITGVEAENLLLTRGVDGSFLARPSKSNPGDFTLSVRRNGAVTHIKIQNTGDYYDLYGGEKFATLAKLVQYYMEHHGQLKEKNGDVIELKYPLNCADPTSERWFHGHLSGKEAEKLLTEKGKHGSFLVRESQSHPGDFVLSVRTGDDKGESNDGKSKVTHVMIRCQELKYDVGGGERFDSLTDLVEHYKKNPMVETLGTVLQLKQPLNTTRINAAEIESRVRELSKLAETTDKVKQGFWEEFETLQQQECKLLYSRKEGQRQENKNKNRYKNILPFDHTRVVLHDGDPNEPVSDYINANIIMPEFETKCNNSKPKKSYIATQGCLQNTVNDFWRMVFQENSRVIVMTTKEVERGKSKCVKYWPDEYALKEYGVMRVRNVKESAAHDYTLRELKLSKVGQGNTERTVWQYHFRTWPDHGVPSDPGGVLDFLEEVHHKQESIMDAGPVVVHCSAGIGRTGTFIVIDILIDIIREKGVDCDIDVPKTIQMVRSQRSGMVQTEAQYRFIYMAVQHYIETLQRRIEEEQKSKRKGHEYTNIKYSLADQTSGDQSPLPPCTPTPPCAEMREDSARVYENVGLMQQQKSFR
Procedure: Reaction was initiated by addition of DiFMUP (50 μM) at room temperature in 384-well black plate with a final reaction volume of 20 uL in assay buffer. […] Dose-response curves were analyzed using IC50 regression curve fitting (GeneData Screener). Curves were normalized to a high controls without inhibitor, and low controls without enzyme.

| Compound | IC50 ([1]; Homo sapiens, KYSE-520, 2 h) [nM] | IC50 [2] [nM] | IC50 [1] [nM] |
| --- | --- | --- | --- |
| NC1(CF)CCN(c2cnc3c(-c4cccc(Cl)c4Cl)n[nH]c3n2)CC1 [Example 58, 1-(3-(2,3-dichlo-rophenyl)-1H-pyrazolo[3,4-b]-pyrazin-6-yl)-4-(fluoromethyl)-piperidin-4-amine] | 109 | 338 | – |
| CC1(CN)CCN(c2cnc3c(-c4cccc(Cl)c4F)n[nH]c3n2)CC1 [Example 25, (1-(3-(3-Chloro-2-fluorophenyl)-1H-pyrazolo[3,4-b]pyrazin-6-yl)-4-methylpiperidin-4-yl)-methanamine] | 47 | 101 | – |
| CC1(CN)CCN(c2cnc3c(-c4cccc(Cl)c4)n[nH]c3n2)CC1 [Example 9, (1-(3-(3-chloro-phenyl)-1H-pyrazolo[3,4-b]-pyrazin-6-yl)-4-methylpiperidin-4-yl)methanamine] | 482 | 367 | – |
| CNc1nccc(-c2n[nH]c3nc(N4CCC(C)(N)CC4)cnc23)c1Cl [Example 112, 4-(6-(4-Amino-4-methylpiperidin-1-yl)-1H-pyrazolo[3,4-b]pyrazin-3-yl)-3-chloro-N-methylpyridin-2-amine] | 58 | – | – |
| NCC1(O)CCN(c2cnc3c(-c4cccc(F)c4Cl)n[nH]c3n2)CC1 [Example 37, 4-(Aminomethyl)-1-(3-(2-chloro-3-fluorophenyl)-1H-pyrazolo[3,4-b]pyrazin-6-yl)-piperidin-4-ol] | 223 | 623 | – |
| Cc1c(Cl)cccc1-c1n[nH]c2nc(N3CCC(C)(CN)CC3)cnc12 [Example 28, (1-(3-(3-chloro-2-methylphenyl)-1H-pyrazolo[3,4-b]-pyrazin-6-yl)-4-methylpiperidin-4-yl) methanamine] | 190 | 142 | – |
| N[C@@H]1CCCC12CCN(c1cnc3c(-c4ccc(Cl)c(Cl)c4)n[nH]c3n1)CC2 [Example 46, (R)-8-(3-(3,4-dichloro-phenyl)-1H-pyrazolo[3,4-b]-pyrazin-6-yl)-8-aza-spiro[4.5]decan-1-amine] | 666 | – | – |
| NCC1(O)CCN(c2cnc3c(-c4cccc(Cl)c4Cl)n[nH]c3n2)CC1 [Example 8, 4-(aminomethyl)-1-(3-(2,3-dichloro-phenyl)-1H-pyrazolo[3,4-b]-pyrazin-6-yl)-piperidin-4-ol] | 86 | 204 | – |
| NC1(CO)CCN(c2cnc3c(-c4cccnc4Cl)n[nH]c3n2)CC1 [Example 59, (4-amino-1-(3-(2-chloropyridin-3-yl)-1H-pyrazolo[3,4-b]pyrazin-6-yl)-piperidin-4-yl)-methanol] | 1040 | – | – |
| N[C@@H]1COCC12CCN(c1cnc3c(-c4cccc(Cl)c4Cl)n[nH]c3n1)CC2 [Example 38, (S)-8-(3-(2,3-Dichlorophenyl)-1H-pyrazolo[3,4-b]pyrazin-6-yl)-2-oxa-8-azaspiro[4.5]-decan-4-amine] | 40 | – | – |
| CC1(N)CCN(c2cnc3c(-c4cccc(Cl)c4F)n[nH]c3n2)CC1 [Example 26, 1-(3-(3-chloro-2-fluorophenyl)-1H-pyrazolo[3,4-b]-pyrazin-6-yl)-4-methylpiperidin-4-amine] | – | 213 | – |
| Cc1c(-c2n[nH]c3nc(N4CCC(C)(N)CC4)cnc23)ccnc1N [Example 123, 4-(6-(4-amino-4-methylpiperidin-1-yl)-1H-pyrazolo[3,4-b]pyrazin-3-yl)-3-methylpyridin-2-amine] | – | 670 | – |
| NCC1(O)CCN(c2cnc3c(-c4c(F)cccc4Cl)n[nH]c3n2)CC1 [Example 63, 4-(aminomethyl)-1-(3-(2-chloro-6-fluorophenyl)-1H-pyrazolo [3,4-b]-pyrazin-6-yl)-piperidin-4-ol] | 687 | – | – |
| Nc1nccc(-c2n[nH]c3nc(N4CCC5(CCC5N)CC4)cnc23)c1Cl (single isomer, unassigned; enantiomer 1) [Example 136a, 7-[3-(2-amino-3-chloropyridine-4-yl)-1H-pyrazolo[3,4-b]-pyrazin-6-yl]-7-aza-spiro[3.5]nonan-1-amine, enantiomer 1] | 2270 | – | – |
| N[C@@H]1COCC12CCN(c1cnc3c(-c4cccc(F)c4Cl)n[nH]c3n1)CC2 [Example 42, (S)-8-(3-(2-chloro-3-fluorophenyl)-1H-pyrazolo[3,4-b]-pyrazin-6-yl)-2-oxa-8-azaspiro[4.5]-decan-4-amine] | 63 | – | – |
| NC1(CO)CCN(c2cnc3c(-c4cccc(F)c4Cl)n[nH]c3n2)CC1 [Example 62, (4-amino-1-(3-(2-chloro-3-fluoro-phenyl)-1H-pyrazolo[3,4-b]-pyrazin-6-yl)-piperidin-4-yl)-methanol] | 310 | – | – |
| N[C@@H]1CCCC12CCN(c1cnc3c(-c4cccnc4Cl)n[nH]c3n1)CC2 [Example 53, (R)-8-(3-(2-chloro-pyridin-3-yl)-1H-pyrazolo[3,4-b]-pyrazin-6-yl)-8-aza-spiro[4.5]decan-1-amine] | 224 | – | – |
| COc1cc(-c2n[nH]c3nc(N4CCC5(CCC[C@H]5N)CC4)cnc23)ccc1Cl [Example 34, (R)-8-(3-(4-chloro-3-methoxyphenyl)-1H-pyrazolo[3,4-b]-pyrazin-6-yl)-8-aza-spiro[4.5]decan-1-amine] | – | 102 | – |
| Cc1c(-c2n[nH]c3nc(N4CCC5(CCC[C@H]5N)CC4)cnc23)ccnc1N [Example 122, (R)-8-(3-(2-amino-3-methylpyridin-4-yl)-1H-pyrazolo[3,4-b]pyrazin-6-yl)-8-azaspiro[4.5]decan-1-amine] | – | 205 | – |
| Nc1nccc(-c2n[nH]c3nc(N4CCC5(CC4)C[C@H](O)C[C@H]5N)cnc23)c1Cl [Example 126, (2S,4R)-4-Amino-8-(3-(2-amino-3-chloropyridin-4-yl)-1H-pyrazolo[3,4-b]pyrazin-6-yl)-8-azaspiro[4.5]decan-2-ol] | – | 75 | – |
| Cc1c(Cl)cccc1-c1n[nH]c2nc(N3CCC4(CCC[C@H]4N)CC3)cnc12 [Example 51, (R)-8-(3-(3-chloro-2-methylphenyl)-1H-pyrazolo[3,4-b]pyrazin-6-yl)-8-azaspiro[4.5]decan-1-amine] | – | 153 | – |
| COc1cc(Cl)cc(-c2n[nH]c3nc(N4CCC5(CCC[C@H]5N)CC4)cnc23)c1 [Example 52, (R)-8-(3-(3-chloro-5-methoxyphenyl)-1H-pyrazolo[3,4-b]pyrazin-6-yl)-8-azaspiro[4.5]decan-1-amine] | – | 313 | – |
| Cc1c(-c2n[nH]c3nc(N4CCC(C)(CN)CC4)cnc23)ccnc1N [Example 124, 4-(6-(4-(Aminomethyl)-4-methylpiperidin-1-yl)-1H-pyrazolo[3,4-b]pyrazin-3-yl)-3-methylpyridin-2-amine] | – | 377 | – |
| CC1(N)CCN(c2cnc3c(-c4c(F)cccc4Cl)n[nH]c3n2)CC1 [Example 32, 1-(3-(2-chloro-6-fluorophenyl)-1H-pyrazolo[3,4-b]-pyrazin-6-yl)-4-methylpiperidin-4-amine] | 284 | – | – |
| Nc1nccc(-c2n[nH]c3nc(N4CCC5(CCC5N)CC4)cnc23)c1Cl (centres unmarked) [Example 115, 7-(3-(2-Amino-3-chloropyridin-4-yl)-1H-pyrazolo[3,4-b]pyrazin-6-yl)-7-azaspiro[3.5]nonan-1-amine] | 427 | – | – |
| Nc1nccc(-c2n[nH]c3nc(N4CCC5(CCC5N)CC4)cnc23)c1Cl (single isomer, unassigned; enantiomer 2) [Example 136b, 7-[3-(2-amino-3-chloropyridin-4-yl)-1H-pyrazolo-[3,4-b]-pyrazin-6-yl]-7-aza-spiro[3.5]nonan-1-amine, enantiomer 2] | – | – | 1960 |

From patent publication US10280171B2, “Heterocyclic inhibitors of PTPN11” (priority 2016, dated 2019)
